# Data published in patent US20100317687A1, “2-BENZOYLIMIDAZO[1,2-a]PYRIDINE DERIVATIVES, PREPARATION THEREOF AND THERAPEUTIC USE THEREOF” (sanofi-aventis, priority 2008, published 2010).
# Biological target: T1, mouse Nurr1 receptor (Mus musculus, UniProt Q06219)
# T1 construct: a cell line (N2A) endogenously expressing the mouse Nurr1 receptor; host or cells: Neuro-2A (N2A) mouse neuroblastoma cells stably transfected with 8NBRE-luciferase
# Assay: In vitro activity on N2A cells (NBRE-luciferase reporter)
# Type: cell-based
# Settings: N2A-8NBRE cells, 24 hours incubation
# Description: The activity of the compounds according to the invention was evaluated on a cell line (N2A) endogenously expressing the mouse Nurr1 receptor and stably transfected with the NOT binding response element (NBRE) coupled to the luciferase reporter gene. The EC50 values are between 0.01 and 1000 nM. The tests were carried out according to the procedure described below.
# The Neuro-2A cell line comes from a standard commercial source (ATCC). The Neuro-2A clone was obtained from a spontaneous tumour originating from a mouse A albino strain produced by R. J Klebe et al. This Neuro-2A line is subsequently stably transfected with 8NBRE-luciferase. The N2A-8NBRE cells are cultured at a confluence in 75 cm^2 culture flasks containing DMEM supplemented with 10% of foetal calf serum, 4.5 g/l of glucose and 0.4 mg/ml of geneticin. After one week of culture, the cells are recovered with 0.25% trypsin for 30 seconds, and then resuspended in DMEM without phenol red, containing 4.5 g/l of glucose and 10% of Hyclone defatted serum, and deposited in white, transparent-bottom, 96-well plates. The cells are deposited in a proportion of 60 000 per well in 75 μl for 24 hours before the addition of the products. The products are applied in 25 μl and incubated for a further 24 hours. On the day of the measurement, an equivalent volume (100 μl) of Steadylite, is added to each well, followed by a waiting period of 30 minutes in order to obtain complete lysis of the cells and maximum production of the signal. The plates are then measured in a microplate luminescence counter after having been sealed with an adhesive film. The products are prepared in the form of a stock solution at 10^−2 M, and then diluted in 100% of DMSO. Each product concentration is diluted beforehand in culture medium before incubation with the cells thus containing a final concentration of 0.625% of DMSO.
# T1 sequence (Q06219 whole entry): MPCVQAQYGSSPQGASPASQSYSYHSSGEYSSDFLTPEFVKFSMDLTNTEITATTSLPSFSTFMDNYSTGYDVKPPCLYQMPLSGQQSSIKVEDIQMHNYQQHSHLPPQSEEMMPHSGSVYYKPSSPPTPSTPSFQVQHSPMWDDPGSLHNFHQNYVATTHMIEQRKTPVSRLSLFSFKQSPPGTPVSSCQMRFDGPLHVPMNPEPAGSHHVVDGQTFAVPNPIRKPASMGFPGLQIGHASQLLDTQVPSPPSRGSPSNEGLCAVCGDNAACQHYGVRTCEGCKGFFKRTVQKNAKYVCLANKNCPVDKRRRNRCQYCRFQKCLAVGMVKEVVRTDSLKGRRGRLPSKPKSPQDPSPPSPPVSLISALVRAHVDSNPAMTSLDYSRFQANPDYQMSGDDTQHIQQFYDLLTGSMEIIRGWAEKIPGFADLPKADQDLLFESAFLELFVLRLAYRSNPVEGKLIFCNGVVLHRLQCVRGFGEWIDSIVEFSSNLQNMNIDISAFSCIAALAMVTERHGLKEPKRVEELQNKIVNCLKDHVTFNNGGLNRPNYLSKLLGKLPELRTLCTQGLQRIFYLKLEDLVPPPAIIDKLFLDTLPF
row,Structure (SMILES),EC50 [nM]
1,"O=C(c1ccccc1)c1cn2cc(-c3cccnc3)ccc2n1 [Compound 7, phenyl[(6-pyridin-3-yl)imidazo[1,2-a]pyridin-2-yl]methanone]",0.5
2,"Nc1cccc(-c2ccc3nc(C(=O)c4ccccc4)cn3c2)n1 [Compound 1, [6-(6-Aminopyridin-2-yl)imidazo[1,2-a]pyridin-2-yl](phenyl)-methanone]",0.7
3,"O=C(c1ccccc1)c1cn2cc(-c3cn[nH]c3)ccc2n1 [Compound 4, Phenyl[6-(1H-pyrazol-4-yl)imidazo[1,2-a]pyridin-2-yl]methanone]",0.5
